Results as given in patent publication US10064865B2, “Composition comprising phosphodiesterase type 5 inhibitor for inhibiting apoptosis of nerve cells” (ARIBIO INC., priority 2012, dated 2018).

Key:
[1] = system: neuron apoptosis-operated rats, ipsilateral cerebral cortex; assay: Example 2 (timing of administration) histopathology: cerebral atrophy and degenerative neurons; assay type: in vivo, Sprague-Dawley (SD) rats; conditions: for Cerebral atrophic % / Numbers of neurons: Degenerative cells: 1 mg/kg s.c. once a day for 14 days, 29 days after neuron apoptosis
Description: Total one hundred healthy male Sprague-Dawley (SD) rats (6-wk old upon receipt; Japan; Body weight ranged in 170-190 g upon receipt) were used after acclimatization for 16 days. Animals were allocated four per polycarbonate cage in a temperature (20-25° C.) and humidity (50-55%) controlled room. Light:dark cycle was 12 hr:12 hr, and standard rodent chow (Samyang, Korea) and water were supplied free to access. All animals were treated in accordance with the Guidelines for Care and Use of Laboratory Animals of Daegu Haany University based on the Guide for the Care and Use of Laboratory Animals by Institute of Laboratory Animal Resources, Commission on Life Science, National Research Council, USA on 1996, Washington D.C. Experimental groups are as follows:
The mirodenafil (mirodenafil 2HCl; SK Chemical Life Science Business, KR) was used in this experiment. […] Mirodenafil was stored at 4° C. in a refrigerator to protect from light and humidity until used. Mirodenafil were directly dissolved in saline as 1 mg/ml concentrations, and subcutaneously administered in a volume of 1 ml/kg on the dorsal back skins from 24, 72 and 168 hrs after neuron apoptosis, once a day for 14 days, respectively. In saline and neuron apoptosis control rats, equal volumes of saline as vehicle were administered, instead of mirodenafil from 24 hrs after neuron apoptosis for 20 days, respectively.
The induction of neuron apoptosis was carried out by damaging the right hemisphere of the brain of animals. Specifically, animals were anesthetized with 2 or 3% isoflurane in the mixture of 70% N2O and 28.5% O2, and were maintained with 1 to 1.5% isoflurane in the mixture of 70% N2O and 28.5% O2. After that the temporalis muscle was bisected and reflected through an incision made midway between the eye and the eardrum canal. The proximal MCA was exposed through a subtemporal craniectomy by microdental drills without removing the zygomatic arch and without transecting the facial nerve. […] Mortality was less than 5%. For sham control, all procedures were performed in the same way, with the exception of the occlusion of the MCA.
At 29 days after neuron apoptosis, rats were sacrificed under deep anesthesia with 3% isoflurane inhalation. Brains were removed, washed in chilled phosphate buffered saline (PBS, pH7.4), and dissected into 6 coronal sections (2 mm thickness) ranging from 2 to 14 mm from the frontal brain pole on the rat brain stainless steel coronal matrix (Harvard, USA). Prepared last 6th cerebral parts were directly fixed in 10% neural buffered formalin. Then, embedded in paraffin, cross-sectioned, and stained with hematoxylin and eosin (H&E) for observing general histopathology of cerebral cortex. […] The histopathologist was blindes to group distribution when this analysis was made.
Histomorphometry: The atrophic % of ipsilateral cerebral cortex was calculated as following Equation 4 as compared with intact contralateral hemisphere in prepared peri-infarct/defect histological specimens. In addition, the numbers of degenerative neurons were also measured in the restricted view fields of cerebral cortex, mm2, respectively. Cerebral atrophy formation=(Contralateral cerebral cortex area−ipsilateral cerebral cortex area)/Contralateral cerebral cortex area×100(%) [EQUATION 4]
All data were expressed as mean±standard deviation (S.D.) of ten rats. Multiple comparison tests for different dose groups were conducted. Variance homogeneity was examined using the Levene test (Levene A, Clin Otalary, 1981; 6:145-51). […] Statistical analyses were conducted using SPSS for Windows (Release 14K, SPSS Inc., USA; Ludbrook, Clin Exp Pharmacol Physiol, 1997; 24:294-6). In addition, the percent changes as compared with neuron apoptosis control and mirodenafil treated rats were calculated to help the understanding of the efficacy of test substances as follow Equation 6 and 7. […]

[2] = system: neuron apoptosis-operated rats; assay: Example 2 water tank task (water maze); assay type: in vivo, Sprague-Dawley (SD) rats
Description: Cognitive testing was conducted using the water tank task (J Neurosci Methods. 11:47-60(1984)). On the days 14 and 28 after neuron apoptosis, the rats were given a series of 3 trials, 10 min apart in a large dark-colored tank (150 cm in diameters×50 cm in height) filled with clear water at a temperature of 22.0±1.0° C. A 15×30 cm submerged platform (2 mm below water surface) was placed in the northwest quadrant of the pool. The release point was always the southern end of the pool. The rats were lowered into the pool facing the wall and were released. The swim paths of the rats for each trials were recorded with a computer interfaced camera tracking system (Smart junior, PanLab, Spain), and the distances (m) and times (sec) taken to reach the escape platform were measured.
All data were expressed as mean±standard deviation (S.D.) of ten rats. Multiple comparison tests for different dose groups were conducted. Variance homogeneity was examined using the Levene test (Levene A, Clin Otalary, 1981; 6:145-51). […] Statistical analyses were conducted using SPSS for Windows (Release 14K, SPSS Inc., USA; Ludbrook, Clin Exp Pharmacol Physiol, 1997; 24:294-6). In addition, the percent changes as compared with neuron apoptosis control and mirodenafil treated rats were calculated to help the understanding of the efficacy of test substances as follow Equation 6 and 7. Percentage Changes as Compared with Sham Control (%)=[((Data of neuron apoptosis control−Data of sham control rat)/Data of sham control rats)×100] [EQUATION 6] Percentage Changes as Compared with neuron apoptosis Control (%)=[((Data of test material treated rats−Data of neuron apoptosis control rats)/Data of neuron apoptosis control rats)×100] [EQUATION 7]

[3] = 1 mg/kg from 24 hrs after surgery
[4] = 1 mg/kg from 72 hrs after surgery
[5] = 1 mg/kg from 168 hrs after surgery

CCCOc1ccc(S(=O)(=O)N2CCN(CCO)CC2)cc1-c1nc2c(CCC)cn(CC)c2c(=O)[nH]1 [Mirodenafil, mirodenafil]
ipsilateral cerebral atrophic % at 29 days, change as compared with neuron apoptosis control [1, 3]: −60.71% | numbers of degenerative neurons at sacrifice, change as compared with neuron apoptosis control [1, 3]: −70.64% | ipsilateral cerebral atrophic % at 29 days, change as compared with neuron apoptosis control [1, 4]: −26.37% | numbers of degenerative neurons at sacrifice, change as compared with neuron apoptosis control [1, 4]: −45.90% | ipsilateral cerebral atrophic % at 29 days, change as compared with neuron apoptosis control [1, 5]: −12.31% | numbers of degenerative neurons at sacrifice, change as compared with neuron apoptosis control [1, 5]: −15.40% | Cerebral atrophic % ([1]; start 24 hrs after operation): 21.90 ± 3.13^ab % | Numbers of neurons: Degenerative cells ([1]; start 24 hrs after operation): 22.80 ± 3.69^ab cells/mm^2 of cerebral cortex | Cerebral atrophic % ([1]; start 72 hrs after operation): 41.03 ± 5.05^ab % | Numbers of neurons: Degenerative cells ([1]; start 72 hrs after operation): 42.01 ± 6.14^ab cells/mm^2 of cerebral cortex | Cerebral atrophic % ([1]; start 168 hrs after operation): 48.87 ± 3.25^ac % | Numbers of neurons: Degenerative cells ([1]; start 168 hrs after operation): 65.70 ± 7.64^ac cells/mm^2 of cerebral cortex | mean distances to reach the escape platform at 28 days, change as compared with neuron apoptosis control [2, 3]: −26.45% | mean time to reach the escape platform at 28 days, change as compared with neuron apoptosis control [2, 3]: −24.49% | mean distances to reach the escape platform at 28 days, change as compared with neuron apoptosis control [2, 4]: −16.05% | mean time to reach the escape platform at 28 days, change as compared with neuron apoptosis control [2, 4]: −17.33% | mean distances to reach the escape platform at 28 days, change as compared with neuron apoptosis control [2, 5]: −6.42% | mean time to reach the escape platform at 28 days, change as compared with neuron apoptosis control [2, 5]: −5.36%
